# Earlier results as cited in patent US20260263394A1, “MEDICAL PATCH […] […] AGENT” (LTS LOHMANN THERAPIE-SYSTEME AG, priority 2023, published 2026).
# What was measured:
# [1] = sub-microgram (less than 1/1,000,000th of a gram) quantities, oral
# [2] = biological target: TRPV1 (Homo sapiens, UniProt Q8NER1); details: relative to capsaicin
# TRPV1, sequence (Q8NER1 whole entry, species assumed): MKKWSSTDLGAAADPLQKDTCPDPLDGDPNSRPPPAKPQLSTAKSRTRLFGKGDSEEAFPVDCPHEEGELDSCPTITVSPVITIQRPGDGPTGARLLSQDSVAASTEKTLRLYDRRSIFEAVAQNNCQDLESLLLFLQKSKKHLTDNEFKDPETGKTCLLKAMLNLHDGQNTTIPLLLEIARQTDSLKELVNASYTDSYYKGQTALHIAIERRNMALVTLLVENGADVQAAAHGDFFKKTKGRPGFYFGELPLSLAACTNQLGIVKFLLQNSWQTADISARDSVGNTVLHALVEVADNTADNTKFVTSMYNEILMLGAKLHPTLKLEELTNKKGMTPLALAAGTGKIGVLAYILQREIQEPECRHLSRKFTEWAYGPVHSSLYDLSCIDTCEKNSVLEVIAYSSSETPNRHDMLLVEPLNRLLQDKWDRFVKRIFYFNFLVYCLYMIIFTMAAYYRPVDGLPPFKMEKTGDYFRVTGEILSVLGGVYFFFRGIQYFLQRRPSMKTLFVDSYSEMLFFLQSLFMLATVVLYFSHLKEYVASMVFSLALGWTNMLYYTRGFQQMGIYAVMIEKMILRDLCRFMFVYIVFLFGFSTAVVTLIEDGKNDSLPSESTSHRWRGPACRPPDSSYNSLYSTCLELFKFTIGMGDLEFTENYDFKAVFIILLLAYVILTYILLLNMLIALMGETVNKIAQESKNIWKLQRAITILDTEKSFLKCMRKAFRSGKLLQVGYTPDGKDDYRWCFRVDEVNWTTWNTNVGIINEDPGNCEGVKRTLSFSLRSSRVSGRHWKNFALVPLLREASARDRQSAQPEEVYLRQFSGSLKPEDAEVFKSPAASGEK
smiles,measurement,setting,value
"C=C(C)[C@]12C[C@@H](C)[C@@]34O[C@@](Cc5ccccc5)(O[C@@H]1[C@@H]3C=C(COC(=O)Cc1ccc(O)c(OC)c1)C[C@]1(O)C(=O)C(C)=C[C@@H]41)O2 [Resiniferatoxin, [(1R,2R,6R,10S,11R,13R, 15R, 17R)-13-benzyl-6-hydroxy-4,17-dimethyl-5-oxo-15-(prop-1-en-2-yl)-12,14,18-trioxapentacyclo [11.4.1.0^1,10.0^2,6.0^11,15]octadeca-3,8-dien-8-yl]methyl 2-(4-hydroxy-3-methoxyphenyl)acetate]",effect when ingested orally,[1],severe burning pain
same,times higher binding affinity for TRPV1 than capsaicin,[2],about 500 times
